Where a SMILES comes first, the peptide text is derived from it. [ ]: non-standard residue; d: D form. Aib = CC(C)(N)C(=O)O
Test system: Mouse monocyte/macrophage cell line, RAW 264.7
Experiment: Cholesterol efflux assay (3H-cholesterol, macrophage cell line)
Type: cell-based
Settings: RAW 264.7, 4 hrs incubation, 0.1% human serum albumin; for 4 h Cholesterol Efflux Emax: ABCA1-mediated efflux; for EC50: read-out: 4 h Cholesterol Efflux EC50, ABCA1-mediated efflux (CPT-cAMP induced minus non-induced)

Row | Structure (SMILES) | 4 h Cholesterol Efflux Emax [%] | EC50 [nM]
1 | CC[C@H](C)[C@H](NC(=O)[C@H](Cc1ccccc1)NC(=O)[C@H](CCC(=O)O)NC(=O)[C@H](CCCNC(=N)N)NC(=O)[C@@H](NC(=O)[C@H](C)NC(=O)[C@H](CCC(=O)O)NC(=O)CNC(=O)[C@H](CCC(=O)O)NC(=O)[C@H](CC(C)C)NC(=O)[C@H](Cc1ccc(O)cc1)NC(=O)[C@H](CO)NC(=O)[C@H](CO)NC(=O)[C@@H](NC(=O)[C@H](CC(=O)O)NC(=O)[C@H](CO)NC(=O)[C@@H](NC(=O)[C@H](Cc1ccccc1)NC(=O)[C@@H](NC(=O)CNC(=O)[C@H](CCC(=O)O)NC(=O)C(C)(C)NC(=O)[C@@H](N)Cc1c[nH]cn1)[C@@H](C)O)[C@@H](C)O)C(C)C)C(C)C)C(=O)N[C@@H](C)C(=O)N[C@@H](Cc1c[nH]c2ccccc12)C(=O)N[C@@H](CC(C)C)C(=O)N[C@H](C(=O)N[C@@H](CCC(=O)O)C(=O)N[C@@H](CCCNC(=N)N)C(=O)NC(C)(C)C(=O)N[C@@H](CCCCN)C(=O)N[C@@H](CCC(=O)O)C(=O)N[C@@H](Cc1ccccc1)C(=O)N[C@@H](CC(C)C)C(N)=O)C(C)C [Compound 19, [Aib8,Glu23,Val25,Arg26,Glu34,Arg35,Aib36,Lys37]-GLP-1-(7-37)-peptidyl-Glu-Phe-Leu amide] (H-H[Aib]EGTFTSDVSSYLEGEAVREFIAWLVER[Aib]KEFL-NH2) | 83 | –
2 | CC[C@H](C)[C@H](NC(=O)[C@H](Cc1ccccc1)NC(=O)[C@H](CCC(=O)O)NC(=O)[C@H](CCCCN)NC(=O)[C@@H](NC(=O)[C@H](C)NC(=O)[C@H](CCC(=O)O)NC(=O)CNC(=O)[C@H](CCC(=O)O)NC(=O)[C@H](CC(C)C)NC(=O)[C@H](Cc1ccc(O)cc1)NC(=O)[C@H](CO)NC(=O)[C@H](CO)NC(=O)[C@@H](NC(=O)[C@H](CC(=O)O)NC(=O)[C@H](CO)NC(=O)[C@@H](NC(=O)[C@H](Cc1ccccc1)NC(=O)[C@@H](NC(=O)CNC(=O)[C@H](CCC(=O)O)NC(=O)C(C)(C)NC(=O)[C@@H](N)Cc1c[nH]cn1)[C@@H](C)O)[C@@H](C)O)C(C)C)C(C)C)C(=O)N[C@@H](C)C(=O)N[C@@H](Cc1c[nH]c2ccccc12)C(=O)N[C@@H](CC(C)C)C(=O)N[C@H](C(=O)N[C@@H](CCC(=O)O)C(=O)N[C@@H](CCCCN)C(=O)N[C@@H](CC(C)C)C(=O)N[C@@H](CCCCN)C(=O)N[C@@H](CCC(=O)O)C(=O)N[C@@H](CC(C)C)C(=O)N[C@H](C(N)=O)C(C)C)C(C)C [Compound 20, [Aib8,Glu23,Val25,Glu34,Lys35,Leu36,Lys37]-GLP-1-(7-37)-peptidyl-Glu-Leu-Val amide] (H-H[Aib]EGTFTSDVSSYLEGEAVKEFIAWLVEKLKELV-NH2; N-terminus assumed) | 102 | 560
3 | CC[C@H](C)[C@H](NC(=O)[C@H](Cc1ccccc1)NC(=O)[C@H](CCC(=O)O)NC(=O)[C@H](CCCCN)NC(=O)[C@@H](NC(=O)[C@H](C)NC(=O)[C@H](Cc1c[nH]c2ccccc12)NC(=O)CNC(=O)[C@H](CCC(=O)O)NC(=O)[C@H](CC(C)C)NC(=O)[C@H](Cc1ccc(O)cc1)NC(=O)[C@H](CO)NC(=O)[C@H](CO)NC(=O)[C@@H](NC(=O)[C@H](CC(=O)O)NC(=O)[C@H](CO)NC(=O)[C@@H](NC(=O)[C@H](Cc1ccccc1)NC(=O)[C@@H](NC(=O)CNC(=O)[C@H](CCC(=O)O)NC(=O)C(C)(C)NC(=O)[C@@H](N)Cc1c[nH]cn1)[C@@H](C)O)[C@@H](C)O)C(C)C)C(C)C)C(=O)N[C@@H](C)C(=O)N[C@@H](Cc1c[nH]c2ccccc12)C(=O)N[C@@H](CC(C)C)C(=O)N[C@H](C(=O)N[C@@H](CCC(=O)O)C(=O)N[C@@H](CCCCN)C(=O)NC(C)(C)C(=O)N[C@@H](CCCCN)C(=O)N[C@@H](CCC(=O)O)C(=O)N[C@@H](Cc1ccccc1)C(=O)N[C@@H](CC(C)C)C(N)=O)C(C)C [Compound 21, [Aib8,Trp23,Val25,Glu34,Lys35,Aib36,Lys37]-GLP-1-(7-37)-peptidyl-Glu-Phe-Leu amide] (H-H[Aib]EGTFTSDVSSYLEGWAVKEFIAWLVEK[Aib]KEFL-NH2) | 70 | –
4 | CC[C@H](C)[C@H](NC(=O)[C@H](Cc1ccccc1)NC(=O)[C@H](CCC(=O)O)NC(=O)[C@H](CCCCN)NC(=O)[C@@H](NC(=O)[C@H](C)NC(=O)[C@H](CCC(=O)O)NC(=O)CNC(=O)[C@H](CCC(=O)O)NC(=O)[C@H](CC(C)C)NC(=O)[C@H](Cc1ccc(O)cc1)NC(=O)[C@H](CO)NC(=O)[C@H](CO)NC(=O)[C@@H](NC(=O)[C@H](CC(=O)O)NC(=O)[C@H](CO)NC(=O)[C@@H](NC(=O)[C@H](Cc1ccccc1)NC(=O)[C@@H](NC(=O)CNC(=O)[C@H](CCC(=O)O)NC(=O)C(C)(C)NC(=O)[C@@H](N)Cc1c[nH]cn1)[C@@H](C)O)[C@@H](C)O)C(C)C)C(C)C)C(=O)N[C@@H](C)C(=O)N[C@@H](Cc1c[nH]c2ccccc12)C(=O)N[C@@H](CC(C)C)C(=O)N[C@H](C(=O)N[C@@H](CCC(=O)O)C(=O)N[C@@H](CCCCN)C(=O)NC(C)(C)C(=O)N[C@@H](CCCCN)C(=O)N[C@@H](CCC(=O)O)C(=O)N[C@@H](Cc1ccccc1)C(=O)N[C@@H](Cc1c[nH]cn1)C(N)=O)C(C)C [Compound 22, [Aib8,Glu23,Val25,Glu34,Lys35,Aib36,Lys37]-GLP-1-(7-37)-peptidyl-Glu-Phe-His amide] (H-H[Aib]EGTFTSDVSSYLEGEAVKEFIAWLVEK[Aib]KEFH-NH2) | 106 | –
5 | CC[C@H](C)[C@H](NC(=O)[C@H](Cc1ccccc1)NC(=O)[C@H](CCC(=O)O)NC(=O)[C@H](CCCNC(=N)N)NC(=O)[C@@H](NC(=O)[C@H](C)NC(=O)[C@H](CCC(=O)O)NC(=O)[C@H](CCC(=O)O)NC(=O)[C@H](CCC(=O)O)NC(=O)[C@H](CCSC)NC(=O)[C@H](CCC(N)=O)NC(=O)[C@H](CCCCN)NC(=O)[C@H](CO)NC(=O)[C@H](CC(C)C)NC(=O)[C@H](CC(=O)O)NC(=O)[C@H](CO)NC(=O)[C@@H](NC(=O)[C@H](Cc1ccccc1)NC(=O)[C@@H](NC(=O)CNC(=O)[C@H](CCC(=O)O)NC(=O)C(C)(C)NC(=O)[C@@H](N)Cc1c[nH]cn1)[C@@H](C)O)[C@@H](C)O)C(C)C)C(=O)N[C@@H](CCC(=O)O)C(=O)N[C@@H](Cc1c[nH]c2ccccc12)C(=O)N[C@@H](CC(C)C)C(=O)N[C@@H](CCCCN)C(=O)N[C@@H](CC(N)=O)C(=O)N[C@@H](CCCCN)C(=O)NC(C)(C)C(=O)N[C@@H](CC(C)C)C(=O)N[C@@H](CCC(=O)O)C(=O)N[C@@H](Cc1ccccc1)C(=O)N[C@@H](CC(C)C)C(=O)N[C@@H](CCC(=O)O)C(=O)N[C@@H](CC(C)C)C(=O)N[C@@H](CC(C)C)C(=O)O [Compound 23, [Aib2,Glu21,Lys29,Aib30,Leu31,Glu32,Phe33,Leu34,Glu35,Leu36,Leu371-Exendin-4-(1-37)-peptide] | 99 | 730

Reference: patent publication US20150344540A1, “NOVEL GLP-1 RECEPTOR AGONISTS WITH CHOLESTEROL EFFLUX ACTIVITY” (NOVO NORDISK A/S, priority 2012, published 2015)
